Tests used:
Assay type in all cases: cell-based
[1] = biological target: T1, A1-AR tagged on the C-terminus with a green fluorescent protein (Homo sapiens, UniProt P30542); experiment: Live cell confocal imaging in CHO cells expressing A1-AR tagged with green fluorescent protein (CHO-A1Tpz)
T1 construct: expressed in transfected cells; host or cells: CHO (CHO-A1Tpz)
T1 sequence (P30542 1-326): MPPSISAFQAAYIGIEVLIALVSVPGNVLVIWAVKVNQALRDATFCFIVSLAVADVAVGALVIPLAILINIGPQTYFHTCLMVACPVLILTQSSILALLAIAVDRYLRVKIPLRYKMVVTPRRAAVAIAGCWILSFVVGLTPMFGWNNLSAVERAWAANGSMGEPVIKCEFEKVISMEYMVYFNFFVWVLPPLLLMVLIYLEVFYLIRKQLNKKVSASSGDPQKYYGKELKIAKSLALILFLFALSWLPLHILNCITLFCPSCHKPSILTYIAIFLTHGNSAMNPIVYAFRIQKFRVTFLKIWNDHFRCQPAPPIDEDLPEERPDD
Description: (§1) Functional studies were performed in CHO-K1 cells expressing both the human A1-AR and a c-fos-pGL3 reporter vector (CHO-A1fos cells). […] Luciferase expression was quantified using a Luclite® kit according to manufacturer's instructions. Live cell confocal imaging was carried out on CHO-A1 cells or CHO cells expressing the A1-AR tagged on the C-terminus with a green fluorescent protein (CHO-A1Tpz).

human A1-AR [2] = biological target: T2, human A1-AR (Homo sapiens, UniProt P30542); experiment: Live cell confocal imaging of fluorescent ligand binding in CHO-A1 cells; conditions: 100 nM BY630-ABEA
T2 construct: expressed in transfected cells; host or cells: CHO-K1 (CHO-A1fos)
T2 sequence (P30542 1-326): T1 sequence (P30542 1-326)
Description: as §1

human A1-AR [3] = biological target: T2, human A1-AR; experiment: c-fos-pGL3 luciferase reporter functional study in CHO-A1fos cells
Description: as §1

Compound: XAC-BODIPY 630/650 [BODIPY-XAC]
- specificity of ligand binding from overlaid red and green channel images (FIG. 4A) ([1]; 50 nM, 15′, CHO cells (A1-R-Topaz)): ligand binding is specific to receptors

Compound: CCCn1c(=O)c2[nH]c(C3CCCC3)nc2n(CCC)c1=O [DPCPX, 8-cyclopentyl-1,3-dipropylxanthine, reference compound]
- effect of preincubation on BY630-ABEA membrane binding (human A1-AR [2]; DPCPX 1 μM, 30 min preincubation): substantially reduced
- effect on the response to BY630-ABEA (human A1-AR [3]; 100 nM DPCPX, n=3): completely blocked the response to BY630-ABEA

Compound: NECA-BODIPY 630/650 [BY630-ABEA]
- time after which binding of ligand to the membrane was detectable (human A1-AR [2]; CHO-A1 cells, n=3): 5 min
- time after which binding of ligand to the membrane was substantial (human A1-AR [2]; CHO-A1 cells, n=3): 30 min
- pEC50, stimulation of luciferase expression (human A1-AR [3]; CHO-A1fos cells, 5 h agonist stimulation, mean s.e.mean): 6.76±0.18
- specificity of ligand binding from overlaid red and green channel images (FIG. 4B) ([1]; 100 nM, 30′, CHO cells (A1-R-Topaz)): ligand binding is specific to receptors
- co-localisation of ligand fluorescence with tagged receptor ([1]; CHO-A1Tpz cells): co-localisation of ligand fluorescence at the membrane with that from the fluorescently tagged A1-AR
